One data set addresses T1, p7NC (Human immunodeficiency virus type 1 group M subtype B, UniProt P05888).
T1 construct: The NC protein of HIV-1 (MN) p7NC was expressed in E. coli; made in house; host or cells: E. coli (vector pMAL-c)
The experiment in a line: HPLC analysis of reaction products of purified p7NC with reagent. Also on record: key to Protein (HPLC): reaction products / Protein (HPLC): reaction rate: formation of non-native, intra-protein disulfide links (designated “Disulfides”); some of the reagents form adducts with the cysteine residues as well (designated “Adducts”); slow: “Slow” reactions are those in which greater than 10% of the p7NC protein remained in its native form after the 10 minute incubation with reagent; very slow: “Very slow” reactions are those in which greater than 50% of the p7NC protein remained in its native form after the 10 minute incubation with reagent; fast: “Fast” reactions result in complete transformation of the p7NC protein to non-native conformations during the 10 minute incubation period. Format: biochemical, HIV-1. The following applies: for Protein (HPLC): reaction products / Protein (HPLC): reaction rate: 63 μM p7NC, 6 reagent : 1 protein, 10 minutes. An excerpt:
Highly purified retroviral NC proteins can be produced by expression from vectors generated through recombinant DNA technology. These proteins when reconstituted with zinc (see, Summers, et al., Protein Science 1:563–567 (1992) for methods), provide the source of the NC proteins containing the zinc fingers that are the targets for attack by the compounds of this invention. When the zinc fingers in NC proteins react with identified compounds, the reaction produces a covalent change in the NC protein, and the modified protein can be separated from the unreacted protein by, for example, reversed phase HPLC.
Samples of p7NC and apo-p7 were reacted with varying amounts of cupric chloride and resulting products separated by HPLC. The reactions were carried out using 44.3 μM protein (p7NC or apo-p7) in 0.1 M Tris-HCl, pH 7.4, for 6 minutes at room temperature with varying concentrations of CuCl2 to achieve the indicated ratios of reactants, in a final volume of 0.7 ml. Chromatography was carried out on the resulting products at pH 2 (0.05% trifluoroacetic acid) on μBondapak™ C-18 (3.9×300 mm) at 1.0 ml/minute using an acetonitrile gradient (0–17%, 20 ml; 17–20%, 60 ml; 20–60%, 10 ml). Elution positions of unreacted protein (p7NC or apo-p7) are indicated as apo-p7.
A two-fold excess of NOBA was reacted with p7NC, and the products were separated by HPLC (FIG. 10) as described above for Cu^+2 and p7NC. Elution positions for the reactants (NOBA and unreacted p7NC) and products, reacted p7NC, NOBA, HABA and AzoxyBA are indicated and an elution profile is included in FIG. 10. NOBA and AzoxyBA were supplied by Octamer, Inc. (Mill Valley, Calif.) and used as HPLC standards.
The disulfide reagent of choice (each available from the Aldrich Chemical Company (Milwaukee, Wis.)) was incubated for 10 minutes with purified p7NC protein (63 μM) at a ratio of 6 molecules of reagent to 1 molecule of NC protein (there are 6 cysteine thiols per NC protein). The formation of non-native protein conformations was monitored by HPLC as described above. […] Generally, the inactivation proceeds by formation of non-native, intra-protein disulfide links (designated “Disulfides”), but some of the reagents form adducts with the cysteine residues as well (designated “Adducts”). “Slow” reactions are those in which greater than 10% of the p7NC protein remained in its native form after the 10 minute incubation with reagent. “Very slow” reactions are those in which greater than 50% of the p7NC protein remained in its native form after the 10 minute incubation with reagent. “Fast” reactions result in complete transformation of the p7NC protein to non-native conformations during the 10 minute incubation period.

The target in data set [1] is T2, HIV NC protein in intact virus (Human immunodeficiency virus type 1 group M subtype B, UniProt P05888).
T2 construct: endogenous in cells; host or cells: intact HIV virions
The data set is described as follows: Cross-linking of NC protein in intact HIV (non-reducing gel-mobility shift, western blot). Format: biochemical, HIV-1. The following applies: for X-link T-½ (min), HIV NC protein: HIV-1 @ 50 μM; for X-link T-½ (min), HIV NC protein (top number): intact HIV generally 12.5 μM, reagent generally 25 μM. An excerpt:
Purified concentrated retrovirus and antisera against the purified NC protein of the virus can be used to test the ability of a specific compound to penetrate the virus and react with the NC protein by forming disulfide complexes in the core of the virus. The compound is mixed with the whole retrovirus under reaction conditions appropriate for the compound. The virus is then removed from the reagent by centrifugation and disrupted in, e.g, standard SDS-PAGE sample buffer with (reduced) and without (non-reduced) 2-mercaptoethanol. The viral proteins are then separated by standard SDS-PAGE and the sample examined for the presence or absence of the monomeric NC protein in the non-reduced sample. Depending upon the virus used in the experiment and the conditions of electrophoresis, the NC protein can be visualized by protein staining methods, or by immuno-blot (e.g., western) methods. Compounds which react with the NC protein by attacking the zinc finger complexes and forming disulfide cross-linked products (i.e., which generate multimers in the mobility shift assay) inactivate the virus. Thus, compounds of interest (i.e., those which cause cross-linking) reduced the amount of monomeric NC protein detected.
In order to determine whether HIV-1MN was inactivated by NOBA, the virus was incubated with varying concentrations of NOBA (3.0, 0.3, 0.03 and 0 mM) as in Table 1. The reaction products were pelleted by centrifugation, and separated by SDS-PAGE under reducing (2% 2-mercaptoethanol, panel A), or non-reducing conditions (panel B). p7NC was visualized by immunoblot analysis using monospecific rabbit antisera to the purified NC proteins as per L. E. Henderson et al., J. Virol. 66:1856 (1992).
Disulfide reagents were further tested for their ability to disrupt NC structure in the virus, based on their ability to cause inter-NC cysteine disulfide bonds (i.e., cross-linking) in the intact virus. The formation of inter-NC cysteine disulfides creates NC multimers, which migrate through a non-reducing gel at a different rate than NC monomers, as described above. Intact HIV virus (generally 12.5 μM) was exposed to the specified reagent (generally 25 μM) for varying lengths of time and electrophoresed through a non-reducing SDS-polyacrylamide gel. HIV NC monomers and multimers were visualized by western blot analysis as described above in Example 3. The approximate time required to cross-link one-half of the NC proteins in the virus at the specified reaction conditions was then determined. […] The top number in the cells of the X-link column in Table 2 refers to the approximate time in minutes required for one-half of the HIV NC proteins to become cross-linked.
In general terms: A western blot detects proteins with antibodies after separation by electrophoresis.

The conditions of data set [2]: cited from earlier work.
A further data set deals with T3, HIV-1 (MN) p7NC (Human immunodeficiency virus type 1 group M subtype B, UniProt P05888).
T3 construct: The NC protein of HIV-1 (MN) p7NC was expressed in E. coli; made in house; host or cells: E. coli (vector pMAL-c)
The experiment in a line: Intrinsic Trp-37 fluorescence quenching of p7NC. Format: biochemical. The following applies: for change in intrinsic fluorescence of p7NC on incubation: Trp-37 fluorescence, zinc-reconstituted p7NC. An excerpt: The NC protein of HIV-1 (MN) p7NC was expressed in E. coli. The coding sequence for HIV-1(MN) p7NC was cloned and expressed using an inducible E. coli promoter in the vector pMAL-c (New England Biolabs Inc., Beverly, Mass.). The protein was expressed as a maltose-binding fusion protein and released by proteolysis with Factor Xa. HIV-1(MN) p7NC was purified by HPLC and characterized, including complete amino acid sequence analysis. p7NC was purified by high-pressure liquid chromatography (HPLC) and reconstituted with two equivalents of zinc to generate native protein as described (M. F. Summers et al., Protein Sci. 1, 563 (1992)).
Coordination of Zn^+2 enhances the intrinsic fluorescence of the single tryptophan (Trp-37) in the second zinc finger. […] The initial phase of the reaction with Cu^+2 (T1/2<20 seconds) gave 70% quenching of the original fluorescence, followed by a much slower phase (T1/2 ca. 6 minutes), resulting in a final limiting quenching of 85%.
The first quenching phase was a second order reaction, whereas the second phase was independent of protein concentration or oxidizing species.

Data set [3] concerns the target T4, p11 Nucleocapsid Protein (p11NC) (Equine infectious anemia virus, UniProt P69732).
T4 construct: a variety of disulfide reagents cross-link the p11NC protein in intact viral particles; endogenous in cells; host or cells: intact EIAV particles
The experiment in a line: Cross-linking of p11NC in intact EIAV particles (gel-mobility shift). Format: biochemical. The following applies: intact EIAV (50 μM), 4× the HIV assay concentrations. An excerpt: Essentially the same strategy was employed to analyze the ability of the various disulfide reagents to cross-link the p11 Nucleocapsid Protein (p11NC) in intact Equine Infectious Anemia Virus (EIAV) particles. The advantages of working with EIAV include the fact that it is not a human pathogen, and that the p11NC protein can be visualized by simple coomassie-blue staining after performing the gel-mobility shift assay (rather than by western blotting as for HIV) described above. The reaction conditions were essentially the same for the EIAV assays as for the HIV assays described above, except that the concentration of virus and disulfide reagent was 4× the concentrations used in the HIV assay above. The second number in each cell in the X-link column in Table 2 represents the time required to cross-link one-half of the p11NC protein in the intact viral particles. […] The bottom number in each cell of the X-link column, unless otherwise indicated, represents the concentration of EIAV used in the assay. Blank cells throughout Table 2 indicate that the compound has yet to be tested for the specified property.

Entries after “also recorded” stand apart in the source; their conditions may differ. Like-named read-outs stand apart in the source and are kept apart here.

T4 sequence (P69732 360-435): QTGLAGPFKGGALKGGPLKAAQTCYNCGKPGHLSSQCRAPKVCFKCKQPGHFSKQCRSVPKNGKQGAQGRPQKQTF

With `CC(C)n1cc(C(C)(C)C)nc1SSc1nc(C(C)(C)C)cn1C(C)C` [2,2-Dithiobis(4-Tert-Butyl-1-Isopropyl)-Imidazole], on p7NC, the “Protein (HPLC): reaction products” value is “Disulfides”. Further, the “X-link T-½ (min), HIV NC protein” value in data set [1] is >>60 min.
As for `c1ccc2sc(SSc3nc4ccccc4s3)nc2c1` [2,2 Dithiobis(benzothiazole)], at p7NC, the “Protein (HPLC): reaction products” value is reported as “Disulfides”. Further, in data set [1], the “cross-linking of the HIV-1 NC protein in intact virus (gel-mobility shift), in words” value (shortened to “cross-linking … (gel-mobility shift), in words”) is “caused a cross-linking of the HIV-1 NC protein” and the “X-link T-½ (min), HIV NC protein” value was approximately 60 min. For the same compound, the “Toxicity (LD-50, mouse)” value in data set [2] (route not given) was 7000 mg/kg.
As for `CC(=O)[O-].CC(=O)[O-].CC(=O)[O-].[Fe+3]` [ferric acetate], the “change in intrinsic fluorescence of p7NC on incubation” value on HIV-1 (MN) p7NC was “rapid biphasic decrease in fluorescence”.
For the compound `CN(C)C(=S)SSC(=S)N(C)C` [Tetramethylthiuram Disulfide], at p7NC, the “Protein (HPLC): reaction products” value is reported as “Disulfides” and the “Protein (HPLC): reaction rate” value is “(slow) (“Slow” reactions are those in which greater than 10% of the p7NC protein remained in its native form after the 10 minute incubation with reagent)”. Further, in data set [1], the “cross-linking … (gel-mobility shift), in words” value was “caused a cross-linking of the HIV-1 NC protein” and the “X-link T-½ (min), HIV NC protein (top number)” value (“X-link T-½ (min) … (top number)” for short) was approximately 30 min. Further, the “X-link T-½ (min), EIAV p11NC (second number)” value (“X-link T-½ (min), EIAV p11NC” for short) in data set [3] is on record as approximately 15 min. Besides, in data set [2] (IP), the “Toxicity (LD-50, mouse)” value was 70 mg/kg. In addition, the “Toxicity (LD-50, mouse)” value in data set [2] (oral) was 1350 mg/kg.
Take `CCCCN(CCCC)C(=S)SSC(=S)N(CCCC)CCCC` [Tetrabutylthiuram Disulfide]: at p7NC, the “Protein (HPLC): reaction products” value is recorded as “Disulfides; also recorded: Adducts” and the “Protein (HPLC): reaction rate” value is listed as “(slow) (“Slow” reactions are those in which greater than 10% of the p7NC protein remained in its native form after the 10 minute incubation with reagent)”. In data set [1], the “cross-linking … (gel-mobility shift), in words” value was “caused a cross-linking of the HIV-1 NC protein” and the “X-link T-½ (min) … (top number)” value is approximately 30 min. Further, the “X-link T-½ (min), EIAV p11NC” value in data set [3] is more than 60 min. Moreover, the “Toxicity (LD-50, mouse)” value in data set [2] (IP) was 2350 mg/kg.
As for `N#Cc1ccccc1SSc1ccccc1C#N` [2,2 Dithiobis(benzonitrile)], the “Protein (HPLC): reaction products” value on p7NC is listed as “Disulfides; also recorded: Adducts”. The “X-link T-½ (min) … (top number)” value in data set [1] is <<15 min. Further, the “X-link T-½ (min), EIAV p11NC” value in data set [3] is reported as approximately 15 min.
`[Cl][Cu][Cl]` [Cu^+2, cupric chloride]: the “change in intrinsic fluorescence of p7NC on incubation” value at HIV-1 (MN) p7NC is recorded as “rapid biphasic decrease in fluorescence”. Besides, at HIV-1 (MN) p7NC (Zn^+2-coordinated p7NC), the final limiting quenching turned out to be 85% and the “quenching of the original fluorescence, initial phase” value was 70%. The “total protein recovered in peak B” value on p7NC (2, 4 or 8 Cu^+2 per p7NC, 44.3 μM protein, 6 minutes, pH 7.4) is reported as “approximately one half”.
As to `[O-][n+]1ccccc1SSc1cccc[n+]1[O-]` [2,2-Dithiobis(Pyridine N-Oxide)], the “Protein (HPLC): reaction products” value at p7NC was “Disulfides”. In data set [1], the “cross-linking … (gel-mobility shift), in words” value is reported as “caused a cross-linking of the HIV-1 NC protein” and the “X-link T-½ (min) … (top number)” value is listed as <<15 min. In addition, the “X-link T-½ (min), EIAV p11NC” value in data set [3] is reported as less than 15 min.
For `CC(C)N(C(=S)SSC(=S)N(C(C)C)C(C)C)C(C)C` [Tetraisopropylthiuram Disulfide], in that order: “Disulfides”, “caused a cross-linking of the HIV-1 NC protein”, more than 15 min and approximately 15 min.
With `O=C(O)c1ccc(SSc2ccc(C(=O)O)cn2)nc1` [6,6-Dithiodinicotinic Acid], at p7NC, the “Protein (HPLC): reaction products” value is reported as “Disulfides; also recorded: Adducts” and the “Protein (HPLC): reaction rate” value is “(slow) (“Slow” reactions are those in which greater than 10% of the p7NC protein remained in its native form after the 10 minute incubation with reagent)”. For the same compound, the “X-link T-½ (min), HIV NC protein” value in data set [1] is approximately 60 min.

The values are drawn from patent US6989263B1, “Method for identifying and using compounds that inactivate HIV-1 and other retroviruses by attacking highly conserved zinc fingers in the viral nucleocapsid protein” (The United States of America as represented by the …, priority 1994, dated 2006).
